Data published in ChEMBL document CHEMBL1158314, “Antimycobacterial cycloartanes from Borrichia frutescens” (J Nat Prod, 1996).
In brackets after ≈: the same amount, converted by molar mass.

Key:
[1] = system: Mycobacterium tuberculosis; assay: Antimycobacterial activity against Mycobacterium tuberculosis H37Rv after 3 days by radiorespirometric assay; format: functional; details: 72 h
Vero = assay: Cytotoxicity against african green monkey Vero cells after 72 hrs; format: cell-based; details: Chlorocebus sabaeus

| SMILES | MIC [1] [µg/mL] | IC50 (Vero) [µg/mL] |
| --- | --- | --- |
| CC(=O)O[C@H]1CC[C@]23C[C@]24CC[C@]2(C)[C@@H]([C@H](C)CC[C@H]5OC5(C)C)CC[C@@]2(C)[C@@H]4CC[C@H]3C1(C)C | > 128 |  |
| CC(=O)O[C@H]1C[C@@]2(C)[C@@H](C[C@@H](O)[C@H]3[C@@]4(C)CC[C@@H](O)[C@@H](C)[C@@H]4CC[C@@]32C)/C1=C(\CCC=C(C)C)C(=O)O [FUSIDIC ACID] | 4 (≈ 7.74 µM) | 106 (≈ 205 µM) |
| C[C@H](CC[C@H]1OC1(C)C)[C@H]1CC[C@@]2(C)[C@@H]3CC[C@H]4C(C)(C)[C@@H](O)CC[C@@]45C[C@@]35CC[C@]12C | 8 (≈ 18.1 µM) | 39.8 (≈ 89.9 µM) |
| C[C@H](CC[C@H]1OC1(C)C)[C@H]1CC[C@@]2(C)[C@@H]3CC[C@H]4C(C)(C)C(=O)CC[C@@]45C[C@@]35CC[C@]12C | 8 (≈ 18.2 µM) | 71.8 (≈ 163 µM) |
| C[C@@H]1CC[C@H](C(C)(C)O)O[C@H]2C[C@@]3(C)[C@@H]4CC[C@H]5C(C)(C)C(=O)CC[C@@]56C[C@@]46CC[C@]3(C)[C@@H]12 [ARGENTATINE B] | > 128 |  |
| CC(C)(O)[C@@H]1CC[C@](C)([C@H]2C(O)C[C@@]3(C)[C@@H]4CC[C@H]5C(C)(C)C(=O)CC[C@@]56C[C@@]46CC[C@]23C)O1 (stereo partly specified) [ARGENTATINE A] | > 128 |  |
| CC(C)=C[C@H](O)C[C@@H](C)[C@H]1CC[C@@]2(C)C3=C(CC[C@]12C)[C@@]1(C)CCC(=O)C(C)(C)[C@@H]1CC3 | 64 (≈ 145 µM) | 104 (≈ 235 µM) |
